SMILES strings stand for the structures.

The target of assay [1] is T1, MMP-2 (Homo sapiens, UniProt P08253).
T1 construct: endogenous in cells; host or cells: cultured human dermal fibroblasts (secreted into conditioned medium)
T1 sequence (P08253 110-660): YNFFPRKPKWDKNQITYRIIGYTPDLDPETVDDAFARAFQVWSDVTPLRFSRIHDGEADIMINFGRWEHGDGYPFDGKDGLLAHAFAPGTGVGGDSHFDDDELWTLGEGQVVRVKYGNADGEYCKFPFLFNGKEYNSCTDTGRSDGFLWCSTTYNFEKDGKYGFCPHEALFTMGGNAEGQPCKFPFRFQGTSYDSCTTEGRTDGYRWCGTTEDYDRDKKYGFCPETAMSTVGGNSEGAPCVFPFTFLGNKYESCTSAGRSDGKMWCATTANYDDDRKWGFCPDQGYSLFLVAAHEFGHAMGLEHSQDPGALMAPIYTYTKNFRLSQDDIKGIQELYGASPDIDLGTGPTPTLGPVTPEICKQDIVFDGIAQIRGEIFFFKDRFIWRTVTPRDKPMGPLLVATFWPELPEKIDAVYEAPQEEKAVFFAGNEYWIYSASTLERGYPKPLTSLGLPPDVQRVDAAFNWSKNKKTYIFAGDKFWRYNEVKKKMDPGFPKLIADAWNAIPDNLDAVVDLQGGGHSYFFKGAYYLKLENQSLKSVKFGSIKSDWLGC
Description: Quantitative fluorescence assay for matrix metalloproteinases (cleavage of Mca-Pro-Leu-Gly-Leu-Dpa-Ala-Arg-NH2). Format: biochemical. As to the method: MMP-2 (Gelatinase) wird von kultivierten dermalen Fibroblasten in beträchtlichen Mengen in das Kulturmedium abgegeben und ist daher leicht zugänglich. Die sezernierte und inaktive Proform des Enzyms wird durch Behandlung mit organischen Quecksilberverbindungen in die enzymatisch aktive Form überführt.
Hierzu werden humane dermale Fibroblasten nach etablierten Standardmethoden gewonnen und kultiviert. Aus dem konditionierten Zellmedium wird humane MMP-2 durch folgende Methode gewonnen: 500 ml Zellmedium werden 30 min. bei 10 000 g zentrifugiert und der Überstand mit einem Vol. 2-fach Bindungspuffer (40 mM Tris-HCI pH 7,5 , 10 mM CaCl2, 1 M NaCI, 0,2% (v/v) Triton X-100) versetzt. Dazu gibt man 6 ml Gelatine-Agarose, welche mit Bindungspuffer äquilibriert wurde, und schüttelt für 1 Std. auf Eis. Die beladene Gelatine-Agarose wird in eine Säule überführt und mit mindestens 10 Vol. Bindungspuffer proteinfrei gespült. Die Elution der gebundenen MMP-2 erfolgt mit 2 Gelvolumen Bindungspuffer plus 5% (v/v) DMSO. Das Eluat enthält die humane MMP-2 als inaktives Zymogen in stark angereicherter Form. Fremdproteine sind TIMP-2 und Fibronektin; das letztere kann durch eine Gelfiltration an Sephacryl S-200 abgetrennt werden. Laufpuffer ist 100 mM Tris-HCI pH 7,5, 10 mM CaCl2, 100 mM NaCI, 0,05% (v/v) Brij 35. Die inaktive humane MMP-2 wird durch zweistündige Inkubation bei 37 °C in Gegenwart von 1 mM p-Aminophenylmercuric Acetate (APMA) aktiviert. Zur Beseitigung von APMA nach Aktivierung wird die Probe an Sephadex G-25 in Laufpuffer (s.o.) filtriert.
(§1) Durch enzymatische Spaltung des synthetischen Substrates Mca-Pro-Leu-Gly-Leu-Dpa-Ala-Arg-NH2 durch die jeweilige Kollagenase, wird die fluoreszente Gruppe Mca ((7-Methoxycoumarin-4-yl)acetyl) vom internen Quencher Dpa ((N-3-(2,4-dinitrophenyl)-L-2,3-diaminopropienyl) getrennt. Dabei erfolgt eine starke Zunahme der Fluoreszenz im Messansatz, die am Fluorimeter quantifiziert werden kann (λex 328 nm, λem 393 nm) und innerhalb der ersten Minuten linear verläuft. Eine gewisse Spezifität des Tests für Matrix-Metalloproteinasen ergibt sich einerseits aus der Aminosäuresequenz -Pro-Leu-Gly-Leu- im Substrat und andererseits durch die gewählten Inkubationsbedingungen. Matrix-Metalloproteinasen spalten das Substrat an der Bindung Gly-Leu. Gemessen wird die proteolytische Restaktivität vorinkubierter Ansätze von Enzym und Inhibitor, wobei die Substrat- und Enzymkonzentration konstant gehalten und die Inhibitorkonzentration variiert wurde. Es wurden für jeden getesteten Inhibitor drei Messreihen mit unterschiedlicher Substratkonzentration aufgenommen. Aus der zeitabhängigen Fluoreszenzzunahme wird die Enzymaktivität in Fluoreszenzeinheiten pro min berechnet. Die Bestimmung der Ki-Werte erfolgte graphisch nach der Methode von DIXON (1953) durch Auftragung der reziproken Reaktionsgeschwindigkeit 1/v (y-Achse) gegen Inhibitorkonzentration (x-Achse).
(§2) 1984 µl Messpuffer (100mM Tris-HCI pH 7,5, 100 mM NaCI, 10 mM CaCl2, 0,05% Brij 35 bzw. 50 mM MES-NaOH, pH 6.0, 10 mM CaCl2, 100 mM NaCI, 0.05% Brij 35 im Fall der KaDo MMP-3) 2 µl Inhibitor, gelöst in DMSO, bzw. DMSO allein (nichtinhibierender Ansatz) 4 µl Enzym • 5 min. Vorinkubation des Enzym-Inhibitor-Gemischs bei Raumtemperatur unter Rühren • Start der Reaktion mit 10 µl Substrat gelöst in DMSO • Aufzeichnung der zeitabhängigen Fluoreszenzzunahme über 2 - 10 min.

Assay [2] has as its target T2, katalytische Domäne der MMP-8 (Homo sapiens, UniProt P22894).
T2 construct: dass wir statt des Gesamtenzyms nur dessen enzymatisch aktive katalytische Domäne in E. coli klonierten; made in house; host or cells: E. coli
The assay is described as above. Format: biochemical.
Text: Die Nutzung der katalytischen Domäne der MMP-8 als weiteres Testenzym wurde deshalb gewählt, weil es eine hohe Stabilität besitzt und darüber hinaus als aktives Enzym vorliegt. Es muß deshalb nicht aktiviert werden, was eine der häufigsten Fehlerursachen darstellt, da die zur Aktivierung genutzten Quecksilberverbindungen häufig mit dem Testsystem bzw. dem Enzym interferieren und dadurch die Messergebnisse verfälschen werden. Die Klonierungsstrategie gestalteten wir so, dass wir statt des Gesamtenzyms nur dessen enzymatisch aktive katalytische Domäne in E. coli klonierten. Mit der konstruierten katalytischen Domäne der MMP-8 erzielten wir ein stabiles, enzymatisch aktives und hochreines Enzym, welches für die Routineuntersuchungen der inhibitorischen Aktivität der synthetisierten Inhibitoren sehr gut geeignet war und die Messergebnisse der einzelnen Messserien miteinander vergleichbar machte. Die Klonierung und Expression der katalytischen Domäne der MMP-8 wurde entsprechend den Angaben von SCHNIERER et al. (Schnierer S, Kleine T, Gote T, Hillemann A, Knäuper V, Tschesche H: The recombinant catalytic domain of human neutrophil collagenase lacks type I collagen substrate specificity. Biochem Biophys Res Comm (1993) vol. 191 No. 2, 319-326) durchgeführt.
as §1, §2

T2 sequence (P22894 100-262 limits assumed): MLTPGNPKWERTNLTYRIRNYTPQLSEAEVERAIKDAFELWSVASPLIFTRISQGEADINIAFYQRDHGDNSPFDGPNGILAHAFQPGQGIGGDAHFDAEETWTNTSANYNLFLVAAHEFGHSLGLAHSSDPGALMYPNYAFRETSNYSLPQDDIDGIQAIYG

Consider `O=c1[nH]c2ccccc2c(=O)n1CC(S)CS` (racemic) [Beispiel 1, (R,S)-3-(2,3-Dimercaptopropyl)chinazolin-2,4-(1H,3H)dion], for which, in assay [1] (bei 10 µM), the “MMP-2 Hemmung” value is on record as 70% Hemmung bei 10 µM. In assay [2] (bei 10 µM), the “MMP-8 Hemmung” value amounted to 70% Hemmung bei 10 µM.
In the case of `O=c1[nH]c2cc(Cl)ccc2c(=O)n1CC(S)CS` (racemic) [Beispiel 3, (R,S)-7-Chlor-3-(2,3-dimercaptopropyl)chinazolin-2,4-(1H,3H)dion], the “MMP-2 Hemmung” value in assay [1] (bei 10 µM) came out at 90% Hemmung bei 10 µM. For the same compound, in assay [2] (bei 10 µM), the “MMP-8 Hemmung” value is on record as 87% Hemmung bei 10 µM.
In the case of `O=c1[nH]c2ccc(Cl)cc2c(=O)n1CC(S)CS` (racemic) [Beispiel 4, (R,S)-6-Chlor-3-(2,3-dimercaptopropyl)chinazolin-2,4-(1H,3H)dion], in assay [1] (bei 10 µM), the “MMP-2 Hemmung” value is reported as 50% Hemmung bei 10 µM. For the same compound, in assay [2] (bei 10 µM), the “MMP-8 Hemmung” value worked out at 60% Hemmung bei 10 µM.
On the same counts, the results for `Cc1cccc2[nH]c(=O)n(CC(S)CS)c(=O)c12` (racemic) [Beispiel 5, (R,S)-3-(2,3-Dimercaptopropyl)-5-methyl-chinazolin-2,4-(1H,3H)dion] are 50% Hemmung bei 10 µM and 70% Hemmung bei 10 µM.
With `COc1cc2[nH]c(=O)n(CC(S)CS)c(=O)c2cc1OC` (racemic) [Beispiel 7, (R,S)-3-(2,3-Dimercaptopropyl)-6,7-dimethoxy-chinazolin-2,4-(1H,3H)dion], the “MMP-2 Hemmung” value in assay [1] (bei 1 µM) was determined as 20% Hemmung bei 1 µM. For the same compound, the “MMP-8 Hemmung” value in assay [2] (bei 1 µM) was 20% Hemmung bei 1 µM.
For the compound `O=C(NCc1ccccc1)c1ccc2c(=O)n(CC(S)CS)c(=O)[nH]c2c1` (racemic) [Beispiel 8, (R,S)-N-Benzyl-3-(2,3-dimercaptopropyl)-2,4-dioxo-1,2,3,4-tetrahydrochinazolin-7-carboxamide], the “MMP-2 Hemmung” value in assay [1] (bei 5 µM) is 50% Hemmung bei 5µM. In addition, the “MMP-8 Hemmung” value in assay [2] (bei 5 µM) was determined as 30% Hemmung bei 5 µM.
For `O=c1[nH]c2ccsc2c(=O)n1CC(S)CS` (racemic) [Beispiel 9, (R,S)-3-(2,3-Dimercaptopropyl)thieno[3,2-d]pyrimidin-2,4(1H,3H)-dion], in assay [1] (bei 3 µM), the “MMP-2 Hemmung” value is given as 50% Hemmung bei 3 µM. For the same compound, in assay [2] (bei 2,5 µM), the “MMP-8 Hemmung” value is on record as 50% Hemmung bei 2,5 µM.
Consider `O=c1[nH]c2sc3c(c2c(=O)n1CC(S)CS)CCCC3` (racemic) [Beispiel 10, (R,S)-3-(2,3-Dimercaptopropyl)-5,6,7,8-tetrahydro[1]benzothieno[2,3-d]pyrimidin-2,4(1H,3H)-dion], for which the “MMP-2 Hemmung” value in assay [1] (bei 10 µM) amounted to 52% Hemmung bei 10 µM. Further, in assay [2] (bei 10 µM), the “MMP-8 Hemmung” value was determined as 39% Hemmung bei 10 µM.
In the case of `O=c1[nH]c2sc(-c3ccccc3)cc2c(=O)n1CC(S)CS` (racemic) [Beispiel 11, (R,S)-3-(2,3-Dimercaptopropyl)-6-phenylthieno[2,3-d]pyrimidin-2,4(1H,3H)-dion], the “MMP-2 Hemmung” value in assay [1] (bei 1 µM) is reported as 15% Hemmung bei 1 µM. Further, the “MMP-8 Hemmung” value in assay [2] (bei 1 µM) was determined as 30% Hemmung bei 1 µM.

Values taken from patent publication EP1357114A1, “Substituted pyrimidin-2,4(1H,3H)-diones as inhibitors of Matrix Metalloproteinases (MMP)” (IBFB GmbH Privates Institut für biomedizinische Forschung …, priority 2002, dated 2003).
